Literature values as cited in publication PMC6492937.

Assay: not told

Row | SMILES | log partition octanol / water
1 | CCCCCCC(=O)N(C)C | 1.89 log10
2 | CCCCCCCCC(=O)N(C)C | 3.00 log10
3 | CCCCCCCCN1CCCC1=O | 3.05 log10
4 | CCCCN1CCCCCC1=O | 1.80 log10
5 | CCCCCCCCCC(=O)N1CC(O)CC1C(=O)NCC (stereo not drawn) | 2.86 log10
6 | CCCCCCCCCCCCN1CCCCCC1=O | 6.28 log10
7 | CCCCCCN1CCCC1=O | 2.1 log10
8 | CCCCCCN1CCCCCC1=O | 2.91 log10
9 | CCCCN1CCCC1=O | 1.02 log10
10 | CCCCCCCCN1CCCCC1=O | 3.41 log10
11 | CCCCCCCC(=O)N(C)C | 2.59 log10
12 | CCCCN1CCCCC1=O | 1.39 log10
13 | CCCCCCCCN1CCCCCC1=O | 4.04 log10
14 | CCCCCC(=O)N(C)C | 1.36 log10
15 | CCCCCCN1CCCCC1=O | 2.3 log10
